Assays:
[1] = target: delta opioid receptor (Mus musculus, UniProt P32300); assay: Agonism at delta opioid receptor
[2] = test system: mu opioid receptor; assay: Agonism at mu opioid receptor
[3] = test system: rodent test subjects; assay: Proconvulsant activity in rodent tests
[4] = test system: rodent test subjects; assay: Analgesia; assay type: in vivo; details: for analgesia efficacy: in vivo; for analgesia compared with morphine: rodent test subjects
[5] = test system: opioid receptors (mu/delta); assay: Opioid receptor ligand selectivity / mixed agonist character
[6] = test system: rodent test subjects; assay: Respiratory depression in rodents; details: vs morphine
[7] = test system: rodent test subjects; assay: Muscle rigidity in rodents; details: vs morphine
[8] = test system: pressure nociception in rats; assay: Analgesic activity, tail pinch assay in rats (i.v.); assay type: in vivo, rat (male Sprague-Dawley CD strain); details: iv, 5 min, rat tail pinch, 5 minutes after injection, read-out: Antinociceptive ED50 (half-maximum effective dose)
Description: Analgesic activity was assessed by the tail pinch assay in rats (male Sprague-Dawley CD strain, weight approximately 300 g) after intravenous (i.v.) tail vein injection. A group of 6 to 8 animals was injected i.v. with compound in sterile 5% dextrose solution at a concentration of 1-5 mg/mL. Five minutes after injection, an artery clamp (Fisher Scientific Co., self-closing artery forcep, catalog #08-905) was placed on the tail about one inch from the tip of the tail to induce pressure nociception for a short duration (maximum of 20 seconds). The nociceptive response was judged by any sign of discomfort, such as running, squeaking, or turning around to bite the clamp. The dose-response curve was plotted for each compound.

Chain of delta opioid receptor (P32300 whole entry): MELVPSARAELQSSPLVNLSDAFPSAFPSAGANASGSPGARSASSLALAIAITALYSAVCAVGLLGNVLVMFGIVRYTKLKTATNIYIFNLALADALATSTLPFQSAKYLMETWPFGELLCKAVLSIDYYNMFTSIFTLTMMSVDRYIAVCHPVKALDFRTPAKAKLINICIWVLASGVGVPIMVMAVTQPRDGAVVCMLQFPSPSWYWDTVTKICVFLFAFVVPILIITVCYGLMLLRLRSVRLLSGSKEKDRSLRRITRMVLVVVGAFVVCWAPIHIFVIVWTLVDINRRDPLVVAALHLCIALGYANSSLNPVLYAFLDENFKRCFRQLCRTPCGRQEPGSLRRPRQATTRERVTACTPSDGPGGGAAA

Compound	agonism at delta opioid receptor [1]	agonism at mu opioid receptor [2]	proconvulsant activity [3]	analgesia efficacy [4]	analgesia compared with morphine [4]	opioid agonist character [5]	opioid receptor ligand selectivity [5]	respiratory depression [6]	muscle rigidity [7]	ED50 [8] [mg/kg]
C=CCN1C[C@H](C)N([C@@H](c2cccc(O)c2)c2cccc(C(=O)N(CC)c3ccccc3)c2)C[C@H]1C [Example 12, (+)-3-((αR)-α-((2S,5R)-4-Allyl-2,5-dimethyl-1-piperazinyl)-3-hydroxybenzyl)-N-ethyl-N-phenylbenzamide]	agonism	agonism	free of proconvulsant activity	efficacious in mediating analgesia	comparable to mu-analgesic morphine	mixed mu/delta opioid agonists	highly selective	much reduced extent	much reduced extent	
C=CCN1C[C@H](C)N([C@@H](c2cccc(O)c2)c2cccc(C(=O)N(C)c3ccccc3F)c2)C[C@H]1C [Example 31, (+)-3-((αR)-α-((2S,5R)-4-Allyl-2,5-dimethyl-1-piperazinyl)-3-hydroxybenzyl)-N-(2-fluorophenyl)-N-methylbenzamide]	agonism	agonism	free of proconvulsant activity	efficacious in mediating analgesia	comparable to mu-analgesic morphine	mixed mu/delta opioid agonists	highly selective	much reduced extent	much reduced extent	
C=CCN1C[C@H](C)N([C@@H](c2cccc(O)c2)c2cccc(C(=O)N(CCC)c3ccccc3)c2)C[C@H]1C [Example 27, (+)-3-((αR)-α-((2S,5R)-4-Allyl-2.5-dimethyl-1-piperazinyl)-3-hydroxybenzyl)-N-phenyl-N-propylbenzamide]	agonism	agonism	free of proconvulsant activity	efficacious in mediating analgesia	comparable to mu-analgesic morphine	mixed mu/delta opioid agonists	highly selective	much reduced extent	much reduced extent	0.04
C=CCN1C[C@H](C)N([C@@H](c2cccc(O)c2)c2cccc(C(=O)N(C)c3ccccc3)c2)C[C@H]1C [Example 9, (+)-3-((αR)-α-((2S,5R)-4-Allyl-2.5dimethyl-1-piperazinyl)-3-hydroxybenzyl)-N-methyl-N-phenylbenzamide]	agonism	agonism	free of proconvulsant activity	efficacious in mediating analgesia	comparable to mu-analgesic morphine	mixed mu/delta opioid agonists	highly selective	much reduced extent	much reduced extent	
C=CCN1C[C@H](C)N([C@@H](c2cccc(O)c2)c2cccc(C(=O)N(CC)CC)c2)C[C@H]1C [Example 1, (+)-3-((αR)-α-((2S,5R)-4-Allyl-2,5-dimethyl-1-piperazinyl)-3-hydroxybenzyl)-N,N-diethylbenzamide]	agonism	agonism	free of proconvulsant activity	efficacious in mediating analgesia	comparable to mu-analgesic morphine	mixed mu/delta opioid agonists	highly selective	much reduced extent	much reduced extent	0.35
C=CCN1C[C@H](C)N([C@@H](c2cccc(O)c2)c2cccc(C(=O)N(C)c3ccc(OC)cc3)c2)C[C@H]1C [Example 30, (+)-3-((αR)-α-((2S,5R)-4-Allyl-2.5-dimethyl-1-piperazinyl)-3-hydroxybenzyl)-N-(4-methoxyphenyl)-N-methylbenzamide]	agonism	agonism	free of proconvulsant activity	efficacious in mediating analgesia	comparable to mu-analgesic morphine	mixed mu/delta opioid agonists	highly selective	much reduced extent	much reduced extent	
C=CCN1C[C@H](C)N([C@@H](c2cccc(O)c2)c2cccc(C(=O)N(C)c3ccc(F)cc3)c2)C[C@H]1C [Example 10, (+)-3-((αR)-α-((2S,5R)-4-Allyl-2,5-dimethyl-1-piperazinyl)-3-hydroxybenzyl)-N-(4-fluorophenyl)-N-methylbenzamide]	agonism	agonism	free of proconvulsant activity	efficacious in mediating analgesia	comparable to mu-analgesic morphine	mixed mu/delta opioid agonists	highly selective	much reduced extent	much reduced extent	
C=CCN1C[C@H](C)N([C@@H](c2cccc(O)c2)c2cccc(C(=O)N(C)c3cccc(F)c3)c2)C[C@H]1C [Example 16, (+)-3-((αR)-α-((2S,5R)-4-Allyl-2,5-dimethyl-1-piperazinyl)-3-hydroxybenzyl)-N-(3-fluorophenyl)-N-methylbenzamide]	agonism	agonism	free of proconvulsant activity	efficacious in mediating analgesia	comparable to mu-analgesic morphine	mixed mu/delta opioid agonists	highly selective	much reduced extent	much reduced extent	0.03
C=CCN1C[C@H](C)N([C@@H](c2cccc(O)c2)c2cccc(C(=O)N(CC)c3ccc(F)cc3)c2)C[C@H]1C [Example 28, (+)-3-((αR)-α-((2S,5R)-4-Allyl-2,5-dimethyl-1-piperazinyl)-3-hydroxybenzyl)-N-ethyl-N-(4-fluorophenyl)benzamide]	agonism	agonism	free of proconvulsant activity	efficacious in mediating analgesia	comparable to mu-analgesic morphine	mixed mu/delta opioid agonists	highly selective	much reduced extent	much reduced extent	0.03

From patent publication US5552404A, “Opioid compounds and methods for using same” (Delta Pharmaceuticals, Inc., priority 1995, dated 1996)
